Laboratory results as given in patent publication US11174250B2, “Substituted carboxamides as inhibitors of WDR5 protein-protein binding” (PROPELLON THERAPEUTICS INC., priority 2016, dated 2021).
Where two headings read alike, the source gives them in different places.

Columns and labels:
MLL1-WRAD2 complex = MLL1-WRAD2 complex (Homo sapiens (Human), UniProt P61964); assay: MLL1-WRAD2 enzyme assay (in vitro methyl transferase assay); format: biochemical; conditions: MLL1-WRAD2 assay; read-out: In vitro MLL1 activity (IC50)
Experimental: Reaction was initiated with 1 μM 3H-SAM and incubated for 1 hour at 30° C. Reaction mixture was transferred to P81 filter-paper and washed with PBS before detection.

[1] = tested on: H3K4 dimethylation (H3K4me2) in T24 cells; assay: Detection of in-cell H3K4 dimethylation (AlphaLisa); format: cell-based; conditions: Homo sapiens, T-24, 120 h, five days
Experimental: T24 cells were seeded into a 96-well plate at 400 cells/well in 150 μl medium (McCoy 5A containing 10% FBS, 100 μg/ml Normocin, and 50 μg/ml Gentamycin, Invitrogen). A HP D300 digital dispenser was used to dose cells with DMSO or test compounds across a 10-point range of concentrations (high dose of 10 μM), and cultures were grown in a humidified 5% CO2 incubator at 37° C. After five days, plates were removed from incubator, media was aspirated, and the cells washed in PBS. Cell lysis, histone extraction, and detection of H3K4 dimethylation (H3K4me2) were performed using an AlphaLisa kit according to the manufacturer's instructions (Perkin Elmer). Signal was measured using an Envision plate reader.

MV4-11 cells = assay: Cell proliferation assay (ATPlite); format: cell-based; conditions: Homo sapiens, MV4-11, 120 h; MV-411 cells, five days; read-out: In vitro whole cell potency in MV-411 cells, (IC50)
In short: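 Cells seeded at 1,000/well in Alpha-MEM with 10% FBS, treated with compound over a 10-point range (top 10 μM) or DMSO. Grown five days at 37° C, 5% CO2; viability by ATPlite luminescence.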

WDR5 protein = WDR5 protein (Homo sapiens (Human), UniProt P61964); assay: Surface Plasmon Resonance (SPR) assay; format: binding; conditions: SPR; for residence time: τ=1/koff, read-out: Residence Time (t, min)
[2] = Table 1, read-out: WDR5 binding affinity (KD)
[3] = Table 2, read-out: WDR5 binding affinity SPR (KD)

| IC50 (MLL1-WRAD2 complex) | IC50 [1] | IC50 (MV4-11 cells) | Kd (WDR5 protein; [2]) | Kd (WDR5 protein; [3]) | residence time (WDR5 protein) | SMILES |
| --- | --- | --- | --- | --- | --- | --- |
| 939 nM | 952 nM | 634 nM |  |  |  | CN1CCN(c2ccc(-c3cc(CN4CCOCC4)ccc3F)cc2NC(=O)c2c[nH]c(=O)cc2C(F)(F)F)CC1 [Example 2, N-(2′-fluoro-4-(4-methylpiperazin-1-yl)-5′-(morpholinomethyl)-[1,1′-biphenyl]-3-yl)-6-oxo-4-(trifluoromethyl)-1,6-dihydropyridine-3-carboxamide] |
| 549 nM |  | 536 nM | 0.7 nM | 0.7 nM | 23 min | C[C@@H]1CN(c2ccc(-c3ccc(OCC4CC4)nc3F)cc2NC(=O)c2c[nH]c(=O)cc2C(F)(F)F)C[C@H](C)N1C [Example 82, N-(5-(6-(cyclopropylmethoxy)-2-fluoropyridin-3-yl)-2-((3R,5S)-3,4,5-trimethylpiperazin-1-yl)phenyl)-6-oxo-4-(trifluoromethyl)-1,6-dihydropyridine-3-carboxamide] |
| 2070 nM |  | 2710 nM | 4.8 nM | 4.8 nM | 4.29 min | CN1CCN(c2ccc(-c3cc(CN4CC[C@@H](N(C)C)C4)ccc3F)cc2NC(=O)c2c[nH]c(=O)cc2C(F)(F)F)CC1 [Example 71, (R)—N-(5′-((3-(dimethylamino)pyrrolidin-1-yl)methyl)-2′-fluoro-4-(4-methylpiperazin-1-yl)-[1,1′-biphenyl]-3-yl)-6-oxo-4-(trifluoromethyl)-1,6-dihydropyridine-3-carboxamide] |
| 1570 nM |  | 2240 nM | 7 nM | 7 nM | 3.89 min | CN1CCN(c2ccc(-c3cc(CN4CCOCC4)ccc3F)cc2NC(=O)c2c[nH]c(=O)cc2C(F)F)CC1 [Example 49, 4-(difluoromethyl)-N-(2′-fluoro-4-(4-methylpiperazin-1-yl)-5′-(morpholinomethyl)-[1,1′-biphenyl]-3-yl)-6-oxo-1,6-dihydropyridine-3-carboxamide] |
